According to patent US6706664B1, “Benzoxazole compounds, process for the preparation thereof and herbicides” (UBE Industries, Ltd., priority 1999, dated 2004):

Assays:
Parameters in all cases: key: 0: normal development; 1: Less damaged; 2: Slightly damaged; 3: Moderately damaged; 4: Severely damaged; 5: All killed
green foxtail [1] = experiment: Foliar spread test for upland field; format: in vivo, Setaria viridis; settings: foliar spray 500 ppm, 3 weeks, rank vs non-treated
Text: (§1) (0: normal development, 1: Less damaged, 2: Slightly damaged, 3: Moderately damaged, 4: Severely damaged, 5: All killed).
(§2) Wagner pots, each having an area of 1/5000 are, were packed with volcanic ash soil and then each seed of corn, soybean, cotton, wheat, solgum, sugar beat, Large crabgrass, barnyardgrass, green foxtail, blackgrass, annual bluegrass, common lambsquartes, livid amaranth, velvetleaf and morning glory was planted, covered with soil and grown in a glass house at an average temperature of […] for about 2 weeks.
(§3) Each wettable powder of the desired compounds (I) shown in Table 1 prepared in accordance with Example 2 was diluted to 500 ppm with water containing a surfactant (0.5%) and then uniformly sprayed on the above respective plants.
(§4) After these plants were controlled in a glass house at an average temperature of 25° C. for 3 weeks, the herbicidal effects thereof were investigated.
(§5) The herbicidal effects were evaluated according to the evaluation method described in the above (1).

Large crabgrass [2] = experiment: Foliar spread test for upland field; format: in vivo, Digitaria adscendens; settings: foliar spray 500 ppm, 3 weeks, rank vs non-treated
Text: as §1, §2, §3, §4, §5

blackgrass [3] = experiment: Foliar spread test for upland field; format: in vivo, Alopecurus aegualis; settings: foliar spray 500 ppm, 3 weeks, rank vs non-treated
Text: as §1, §2, §3, §4, §5

common lambsquartes [4] = experiment: Foliar spread test for upland field; format: in vivo, Chenopodium album; settings: foliar spray 500 ppm, 3 weeks, rank vs non-treated
How it was run: (§6)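 Crops and weeds grown about 2 weeks in volcanic ash soil in a glasshouse, then sprayed with wettable-powder formulations diluted to 500 ppm in water with 0.5% surfactant. After 3 weeks at 25 °C, injury scored visually 0 (normal) to 5 (all killed).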

corn [5] = experiment: Foliar spread test for upland field; format: in vivo; settings: foliar spray 500 ppm, 3 weeks, rank vs non-treated
How it was run: (§7)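 Two-week-old glasshouse seedlings on volcanic ash soil were treated by foliar spray at 500 ppm, with 0.5% surfactant in the diluent. Effects were graded visually after three weeks, from 0 for no injury to 5 for complete kill.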

wheat [6] = experiment: Foliar spread test for upland field; format: in vivo; settings: foliar spray 500 ppm, 3 weeks, rank vs non-treated
How it was run: as §7

solgum [7] = experiment: Foliar spread test for upland field; format: in vivo; settings: foliar spray 500 ppm, 3 weeks, rank vs non-treated
How it was run: as §7

sugar beat [8] = experiment: Foliar spread test for upland field; format: in vivo; settings: foliar spray 500 ppm, 3 weeks, rank vs non-treated
How it was run: as §7

soybean [9] = experiment: Foliar spread test for upland field; format: in vivo; settings: foliar spray 500 ppm, 3 weeks, rank vs non-treated
How it was run: as §7

cotton [10] = experiment: Foliar spread test for upland field; format: in vivo; settings: foliar spray 500 ppm, 3 weeks, rank vs non-treated
How it was run: as §7

velvetleaf [11] = experiment: Foliar spread test for upland field; format: in vivo, Abutilon theophrasti; settings: foliar spray 500 ppm, 3 weeks, rank vs non-treated
How it was run: as §6

livid amaranth [12] = experiment: Foliar spread test for upland field; format: in vivo, Amaranthus lividus; settings: foliar spray 500 ppm, 3 weeks, rank vs non-treated
How it was run: as §6

green foxtail [13] = experiment: Soil treatment test for upland field; format: in vivo, Setaria viridis; settings: 500 g/ha, glass house 25° C., 3 weeks
How it was run: (§8)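 Pre-emergence: seeds sown in Ube alluvial soil in pots, then soil surface sprayed with wettable-powder formulation diluted in water with 0.05% surfactant at 500 g/ha. Plants kept in glasshouse at average 25° C for 3 weeks; injury scored 0 (normal) to 5 (all killed).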

common lambsquartes [14] = experiment: Soil treatment test for upland field; format: in vivo, Chenopodium album; settings: 500 g/ha, glass house 25° C., 3 weeks
How it was run: as §8

corn [15] = experiment: Soil treatment test for upland field; format: in vivo; settings: 500 g/ha, glass house 25° C., 3 weeks
How it was run: as §8

wheat [16] = experiment: Soil treatment test for upland field; format: in vivo; settings: 500 g/ha, glass house 25° C., 3 weeks
How it was run: as §8

solgum [17] = experiment: Soil treatment test for upland field; format: in vivo; settings: 500 g/ha, glass house 25° C., 3 weeks
How it was run: as §8

sugar beat [18] = experiment: Soil treatment test for upland field; format: in vivo; settings: 500 g/ha, glass house 25° C., 3 weeks
How it was run: as §8

soybean [19] = experiment: Soil treatment test for upland field; format: in vivo; settings: 500 g/ha, glass house 25° C., 3 weeks
How it was run: as §8

cotton [20] = experiment: Soil treatment test for upland field; format: in vivo; settings: 500 g/ha, glass house 25° C., 3 weeks
How it was run: as §8

livid amaranth [21] = experiment: Soil treatment test for upland field; format: in vivo, Amaranthus lividus; settings: 500 g/ha, glass house 25° C., 3 weeks
How it was run: as §8

blackgrass [22] = experiment: Soil treatment test for upland field; format: in vivo, Alopecurus aegualis; settings: 500 g/ha, glass house 25° C., 3 weeks
How it was run: as §8

annual bluegrass [23] = experiment: Foliar spread test for upland field; format: in vivo, Poa annua; settings: foliar spray 500 ppm, 3 weeks, rank vs non-treated
Text: as §1, §2, §3, §4, §5

annual bluegrass [24] = experiment: Soil treatment test for upland field; format: in vivo, Poa annua; settings: 500 g/ha, glass house 25° C., 3 weeks
How it was run: as §8

barnyardgrass [25] = experiment: Foliar spread test for upland field; format: in vivo, Echinochloa crusgalli; settings: foliar spray 500 ppm, 3 weeks, rank vs non-treated
Text: as §1, §2, §3, §4, §5

Large crabgrass [26] = experiment: Soil treatment test for upland field; format: in vivo, Digitaria adscendens; settings: 500 g/ha, glass house 25° C., 3 weeks
How it was run: as §8

barnyardgrass [27] = experiment: Soil treatment test for upland field; format: in vivo, Echinochloa crusgalli; settings: 500 g/ha, glass house 25° C., 3 weeks
How it was run: as §8

velvetleaf [28] = experiment: Soil treatment test for upland field; format: in vivo, Abutilon theophrasti; settings: 500 g/ha, glass house 25° C., 3 weeks
How it was run: as §8

morning glory = experiment: Foliar spread test for upland field; format: in vivo, Ipomoea spps.; settings: foliar spray 500 ppm, 3 weeks, rank vs non-treated
Text: as §1, §2, §3, §4, §5

Structure (SMILES)	Effects Green foxtail (green foxtail [1])	Effects Large crabgrass (Large crabgrass [2])	Effects Blackgrass (blackgrass [3])	Effects Common lambsquarters (common lambsquartes [4])	Effects Corn (corn [5])	Effects Wheat (wheat [6])	Effects Solgum (solgum [7])	Effects Sugar beat (sugar beat [8])	Effects Soybean (soybean [9])	Effects Cotton (cotton [10])	Effects Velvetleaf (velvetleaf [11])	Effects Livid amaranth (livid amaranth [12])	Effects Green foxtail (green foxtail [13])	Effects Common lambsquarters (common lambsquartes [14])	Effects Wheat (wheat [16])	Effects Solgum (solgum [17])	Effects Sugar beat (sugar beat [18])	Effects Soybean (soybean [19])	Effects Livid amaranth (livid amaranth [21])	Effects Annual bluegrass (annual bluegrass [23])	also measured
CCC(Oc1ccc(F)c(C(F)(F)F)c1)c1nc2cc(NC(=O)C(F)(F)F)ccc2o1 (stereo not drawn) [Compound 518]	5	2	2	2	0	0	0	5	0	0	3	2									
CCC(Oc1cccc(C(F)(F)F)c1)c1nc2cc([N+](=O)[O-])ccc2o1 (stereo not drawn) [Compound 178]	2	3	2	4	2	2	2	3	3	3	3	4	5	4	0	0	1	0	5	3	Effects Corn (corn [15]): 0; Effects Cotton (cotton [20]): 0; Effects Blackgrass (blackgrass [22]): 3; Effects Annual bluegrass (annual bluegrass [24]): 5; Effects Barnyardgrass (barnyardgrass [25]): 2; Effects Large crabgrass (Large crabgrass [26]): 5; Effects Barnyardgrass (barnyardgrass [27]): 4; Effects Velvetleaf (velvetleaf [28]): 1
CC(Oc1cccc(C(F)(F)F)c1)c1nc2ccc(C(F)(F)F)cc2o1 (stereo not drawn) [Compound 86]	2	2	1	2	1	1	0	2	2	1	1	3	4	1	0	0	2	0	5	1	Effects Corn (corn [15]): 0; Effects Annual bluegrass (annual bluegrass [24]): 1; Effects Morning glory (morning glory): 3; Effects Large crabgrass (Large crabgrass [26]): 5; Effects Barnyardgrass (barnyardgrass [27]): 3
CCC(Oc1ccc(Cl)c(C(F)(F)F)c1)c1nc2cc(Cl)ccc2o1 (stereo not drawn) [Compound 438]	3	3	2	3	2	2	2	5	4	3	3	5								3	Effects Barnyardgrass (barnyardgrass [25]): 1; Effects Morning glory (morning glory): 4
CCC(Oc1ccc(Cl)c(C(F)(F)F)c1)c1nc2cc(C#N)c(Cl)cc2o1 (stereo not drawn) [Compound 534]		2	3	4	2	2	2	5			5	5	5	5	1	1	5	2	5	4	Effects Corn (corn [15]): 2; Effects Blackgrass (blackgrass [22]): 4; Effects Annual bluegrass (annual bluegrass [24]): 5; Effects Barnyardgrass (barnyardgrass [25]): 2; Effects Morning glory (morning glory): 5; Effects Large crabgrass (Large crabgrass [26]): 5; Effects Barnyardgrass (barnyardgrass [27]): 4; Effects Velvetleaf (velvetleaf [28]): 5
CCC(Oc1cccc(S(C)(=O)=O)c1)c1nc2cc(S(C)(=O)=O)ccc2o1 (stereo not drawn) [Compound 513]	5	5	5	5			3	5			5	5	5	5	2	2	5	2	5	5	Effects Cotton (cotton [20]): 2; Effects Blackgrass (blackgrass [22]): 3; Effects Annual bluegrass (annual bluegrass [24]): 5; Effects Barnyardgrass (barnyardgrass [25]): 3; Effects Morning glory (morning glory): 3; Effects Large crabgrass (Large crabgrass [26]): 5; Effects Barnyardgrass (barnyardgrass [27]): 4; Effects Velvetleaf (velvetleaf [28]): 5
